Data reported in PubChem BioAssay (NCI).
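1) Cells in 96-well plates. 2) Compound, 48 h, 5 concentrations. 3) Linear interpolation between surrounding doses. 4) Unreached endpoint = highest concentration. Abbreviation: GI50, concentration required for 50% inhibition of growth. The concentration for full growth arrest is given as TGI.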

Key:
Assay in all cases: inhibition of tumour cell growth, NCI panel, 48 h
SK-MEL-28 melanoma = tested on: SK-MEL-28 melanoma
LOX IMVI melanoma = tested on: LOX IMVI melanoma
RPMI-8226 leukemia = tested on: RPMI-8226 leukemia
OVCAR-4 ovarian = tested on: OVCAR-4 ovarian
NCI-H23 lung = tested on: NCI-H23 lung
SF-539 CNS = tested on: SF-539 CNS
SK-OV-3 ovarian = tested on: SK-OV-3 ovarian
UACC-62 melanoma = tested on: UACC-62 melanoma
SR leukemia = tested on: SR leukemia
NCI/ADR-RES ovarian = tested on: NCI/ADR-RES ovarian

Row | Compound | GI50 (SK-MEL-28 melanoma) | TGI (SK-MEL-28 melanoma) | GI50 (LOX IMVI melanoma) | TGI (LOX IMVI melanoma) | GI50 (RPMI-8226 leukemia) | TGI (RPMI-8226 leukemia) | GI50 (OVCAR-4 ovarian) | TGI (OVCAR-4 ovarian) | GI50 (NCI-H23 lung) | TGI (NCI-H23 lung) | GI50 (SF-539 CNS) | TGI (SF-539 CNS) | GI50 (SK-OV-3 ovarian) | TGI (SK-OV-3 ovarian) | GI50 (UACC-62 melanoma) | TGI (UACC-62 melanoma) | TGI (SR leukemia) | GI50 (NCI/ADR-RES ovarian) | TGI (NCI/ADR-RES ovarian)
1 | CC(=O)[C-](C(C)=O)c1ccccc1.CC(=O)[C-](C(C)=O)c1ccccc1.CC[O-].CC[O-].[Ti+4] | > 100 µM | > 100 µM | > 100 µM | > 100 µM | > 100 µM | > 100 µM | > 100 µM | > 100 µM | > 100 µM | > 100 µM | > 100 µM | > 100 µM | > 100 µM | > 100 µM | > 100 µM | > 100 µM |  |  | 
2 | CCCCCCCCCCCC(=O)c1c(O)cccc1O |  | 32 µM |  | 33.7 µM |  | 68.5 µM |  | 37.6 µM |  | 32.2 µM |  | 32.4 µM |  | 85.8 µM |  | 34.3 µM | 49 µM |  | 
3 | CC(C(=O)c1ccc(Cl)cc1)C1OC(=O)C(Cl)=C1Cl (stereo unspecified) |  | 57.1 µM |  | 47.3 µM |  | 70.8 µM |  | 64.6 µM |  | 71.1 µM |  | 70.9 µM |  | > 100 µM |  | 46.7 µM |  |  | 
4 | Oc1c(I)cc(-c2nc3ccccc3s2)cc1CN(Cc1ccccn1)Cc1ccccn1 | 0.411 µM | 43 µM | 0.305 µM | 1.38 µM | 0.385 µM | 3.03 µM | 0.231 µM | 5.58 µM | 0.866 µM | > 100 µM | 0.246 µM | 0.903 µM | 0.437 µM | > 100 µM | 0.207 µM | 0.563 µM |  | 0.411 µM | 2.93 µM
5 | CC(=O)c1cc2c(c3ccsc13)-c1ccccc1CC2 | > 100 µM | > 100 µM | 32.3 µM | > 100 µM | 25.8 µM | 75 µM | > 100 µM | > 100 µM | 28.1 µM | 95.6 µM | 27.9 µM | > 100 µM | > 100 µM | > 100 µM | 7.71 µM | > 100 µM |  | 16.6 µM | 44.8 µM
6 | COC(=O)OCc1ccc2c(c1)C(=O)c1c-2n(CCCBr)c(=O)c2cc([N+](=O)[O-])ccc12 | > 100 µM | > 100 µM | 74.3 µM | > 100 µM |  |  | > 100 µM | > 100 µM |  |  | 56 µM | > 100 µM | 31.1 µM | > 100 µM | 33.5 µM | > 100 µM |  | > 100 µM | > 100 µM
7 | c1cc[c]([Sn]([S]c2cccc3cccnc23)([S]c2cccc3cccnc23)[c]2ccccc2)cc1 | 0.196 µM | 0.532 µM | 0.186 µM | 0.402 µM | 0.158 µM | 0.465 µM | 0.163 µM | 0.336 µM | 0.198 µM | 0.46 µM | 0.295 µM | 0.893 µM | 0.588 µM | 2.07 µM | 0.186 µM | 0.43 µM |  |  | 
8 | CCCCCC(O)(CCCCC)CCCCCCCCC1=C(O)c2[nH]c(=O)ccc2C(=O)C1=O |  | 20.7 µM |  | 24 µM |  | 25.3 µM |  | 7.06 µM |  | 7.73 µM |  | 20.3 µM |  | 29.6 µM |  | 10.9 µM | 96.7 µM |  | 
9 | CCCCCCCCCCCC(O)=C1C(=O)CC(O)CC1=O (stereo unspecified) |  | > 100 µM |  | > 100 µM |  | > 100 µM |  | > 100 µM |  | > 100 µM |  | > 100 µM |  | > 100 µM |  | > 100 µM | > 100 µM |  | 
10 | COC(=O)/C(=C/c1ccc(OC)cc1)NC(=O)c1ccccc1 |  | > 100 µM |  | > 100 µM |  | > 100 µM |  | > 100 µM |  | > 100 µM |  | > 100 µM |  | > 100 µM |  | > 100 µM | > 100 µM |  | 
11 | CN1CCN(c2ccc(NC3=C(Cl)C(=O)c4ncccc4C3=O)cc2C#N)CC1 | 1.86 µM | 3.26 µM | 1.51 µM | 3.19 µM |  |  | 1.09 µM | 2.36 µM | 2.15 µM | 6.22 µM | 4.44 µM | 15 µM | 13.8 µM | 27.5 µM | 1.78 µM | 3.61 µM |  | 4.56 µM | 24.3 µM
12 | N[C@@H]1CCCC[C@@H]1N.O=C([O-])CN(CP(=O)([O-])[O-])CP(=O)([O-])[O-].[Pt+2] | > 100 µM | > 100 µM | > 100 µM | > 100 µM | > 100 µM | > 100 µM | > 100 µM | > 100 µM | > 100 µM | > 100 µM | > 100 µM | > 100 µM | > 100 µM | > 100 µM | > 100 µM | > 100 µM |  |  | 
13 | C#C[C@H](CCCC)OC(=O)N[C@H](C)c1ccccc1 |  | > 100 µM |  | 87.8 µM |  | 69.4 µM |  | > 100 µM |  |  |  |  |  | > 100 µM |  | > 100 µM | 99.4 µM |  | 
14 | COc1ccc(C(=O)COc2cccc(/C=C3\CSc4ccc(Cl)cc4C3=O)c2)cc1 | 15.4 µM | 29 µM | 1.79 µM | 3.48 µM | 0.214 µM | 3.51 µM | 11.7 µM | 28.4 µM | 14.2 µM | 35 µM | 16.2 µM | 30.7 µM | 25.9 µM | > 100 µM | 6.23 µM | 21 µM |  | 11.4 µM | 29.9 µM
15 | c1cc(-c2cn[nH]c2)cc(-c2cn[nH]c2)c1 |  | > 100 µM |  | > 100 µM |  | > 100 µM |  | > 100 µM |  | > 100 µM |  | 55.4 µM |  | 37.5 µM |  | 35.6 µM | > 100 µM |  | 
16 | COc1cc(Cl)c2c3c(c(C(=O)c4ccccc4)oc13)CCC2 |  | > 100 µM |  | > 100 µM |  | > 100 µM |  | > 100 µM |  | > 100 µM |  | > 100 µM |  | > 100 µM |  | > 100 µM |  |  | 
17 | CC1(C)CC(=O)C(=[N+]=[N-])C(=O)C1 |  | > 100 µM |  | > 100 µM |  | > 100 µM |  | > 100 µM |  | > 100 µM |  | > 100 µM |  | > 100 µM |  | > 100 µM |  |  | 
18 | CC1CCP(=O)(c2ccccc2)CC1 (stereo unspecified) |  | > 100 µM |  | > 100 µM |  | > 100 µM |  | > 100 µM |  | > 100 µM |  | > 100 µM |  | > 100 µM |  | > 100 µM |  |  | 
